# Laboratory results as given in US20260274828A1, “BROAD SPECTRUM ANTIFUNGAL KETO-ALKYL-PYRIDINIUM COMPOUNDS” (priority 2023, published 2026).
# Read-outs that look alike come from different tables or passages of the source.
# Columns and labels:
# A. fumigatus = test: Planktonic MIC, CLSI guidelines; format: cell-based; settings: Aspergillus fumigatus, read-out: MIC
# Description: (§1) Minimum inhibitory concentrations were determined using CLSI guidelines (Beattie & Krysan, 2021; Wiederhold, 2021). All yeasts were cultured overnight in 3 mL YPD at 30° C., then washed twice in sterile PBS. Two-fold serial dilutions of each compound were prepared in RMPI+MOPS pH 7 (Gibco RPMI 1640 with L-glutamine [11875-093] and 0.165M 352 MOPS), then 1×10^3 cells were added per well. Plates were incubated at 37° C. for 24 hours (C. albicans and S. cerevisiae) or 72 hours (C. neoformans). For A. fumigatus and F. oxysporum wells were inoculated with 1.25×10^4 conidia. Plates were incubated at 37° C. for 48 hours for A. fumigatus and 72 hours for F. oxysporum. All MICs are defined as the well with complete growth inhibition as determined by visual inspection with the exception of MICs of fluconazole against C. albicans where the MIC is defined as at least 50% reduction in growth compared to the control.
# C. glabrata = test: Planktonic MIC, CLSI guidelines; format: cell-based; settings: Nakaseomyces glabratus; strain KK2001
# Description: as §1
# C. neoformans = test: Planktonic MIC, CLSI guidelines; format: cell-based; settings: Cryptococcus neoformans
# Description: as §1
# F. oxysporum = test: Planktonic MIC, CLSI guidelines; format: cell-based; settings: Fusarium oxysporum; strain DUMC Fo
# Description: as §1
# A. terreus = test: Planktonic MIC, CLSI guidelines; format: cell-based; settings: Aspergillus terreus; strain CFF S023
# C. albicans [1] = test: Planktonic MIC, CLSI guidelines; format: cell-based, Candida albicans
# Description: as §1
# C. auris = test: Planktonic MIC, CLSI guidelines; format: cell-based, Candida auris; settings: Candidozyma auris
# Description: as §1
# P. aeruginosa = test: Antibacterial MIC; format: cell-based, Pseudomonas aeruginosa
# S. aureus = test: Antibacterial MIC; format: cell-based; settings: Staphylococcus aureus; strain Newman
# C. albicans [2] = test: Checkerboard assay with clinical antifungals (FICI); format: cell-based, Candida albicans; settings: with fluconazole
# Description: To determine if compounds interacted with clinically used antifungal drugs, checkerboard assays were performed and fractional inhibitory concentration indices were determined. […] The FICI for compound B and fluconazole is 8.25 due to the 8-fold increase in fluconazole concentration in the combination; however, the concentration of compound B at FIC is reduced by 4-fold relative to compound B as a single agent (Table 3).
# [3] = test system: C. albicans SC5314 biofilms; test: Biofilm phase antifungal activity assay (XTT reduction); format: cell-based, Candida albicans
# Description: (§2) These assays were performed as previously described (Mao et al., 2020; Ramage et al., 2001). C. albicans and C. auris, overnight cultures were washed in sterile PBS and adjusted to 1×10^6 CFU/mL in RPMI+MOPS pH 7. 100 μL cells were added to each well and incubated at 37° C. for 24 hours. A two-fold dilution series of the compounds was prepared in RPMI+MOPS with equal vehicle concentrations. Media was removed and biofilms were gently washed with PBS, then 200 μL of each drug dilution was added to wells and plates were incubated at 37° C. for an additional 24 hours. Media was removed and biofilms were gently washed with PBS, then 100 μL of XTT solution (0.83 mg/mL XTT sodium salt [Sigma, Cat #X4626]+32 μg/mL PMS [Sigma, Cat #P9625] in PBS) was added to each well. Plates were incubated at 37° C. for 30 minutes, then the absorbance was measured at 490 nm.
# (§3) The metabolic activity of the biofilms was then assayed using the standard XXT reduction assay (Ramage et al., 2001). […] The biofilm activity of compound A was reduced by 4-fold relative to planktonic growth (MIC 4 μg/mL, Table 2).
# HepG2 cells = test: Mammalian cell culture toxicity assay (LDH release and XTT); format: cell-based, human
# Description: HepG2 cells (ATCC, #) were maintained and cultured in HepG2 media (DMEM (Gibco, Cat #11965-092) with 5% FBS, 20 mM Glutamine, and Penicillin/Streptomycin) at 37° C. with 5% CO2. Cells were seeded in 96-well plates at a density of 1.25×10^4 cells/well and incubated overnight at 37° C. with 5% CO2, then media was removed and replaced with media containing a two-fold dilution series of compounds with equal DMSO concentrations across all wells including no compound controls. Cells were incubated for an additional 24 hours. Supernatant was removed and used to quantify lactate dehydrogenase release using the CyQuant LDH assay kit (Invitrogen, Cat #C20300) following the manufacturer's directions. LDH signal was normalized to a max lysis control. The remaining cells were then used to quantify cellular metabolism by XTT. Briefly, cells were washed, then 0.9 mg/mL XTT (Sigma, CAT #X4626)+320 μg/mL PMS ([…] methosulfate; Sigma, Cat #P9625) in HepG2 media was added to each well. Plates were incubated at 37° C., with 5% CO2 for 2 hours, then absorbance was measured at 490 nm.
# C. auris 0381 biofilms = test: Biofilm phase antifungal activity assay (XTT reduction); format: cell-based, Candida auris
# Description: as §2, §3
# C. albicans [4] = test: Planktonic MIC, CLSI guidelines; format: cell-based, Candida albicans; settings: data not shown
smiles,measurement,setting,value
Nc1cc[n+](CC(=O)c2ccc3c(c2)OC(c2ccccc2)(c2ccccc2)O3)cc1.[Cl-] [Compound A],MIC,A. fumigatus; strain AF293,2 µg/mL
same,MIC,A. fumigatus; strain CEA10,32 µg/mL
same,MIC,A. fumigatus; strain CFF S001,64 µg/mL
same,MIC,A. fumigatus; strain CFF S003,4 µg/mL
same,MIC,A. fumigatus; strain CFF S007,64 µg/mL
same,MIC,A. fumigatus; strain CFF S008,64 µg/mL
same,MIC,A. fumigatus; strain CFF S014,8 µg/mL
same,MIC,A. fumigatus; strain CFF S029,4 µg/mL
same,MIC,A. fumigatus; strain Cas^R,32 µg/mL
same,MIC,A. fumigatus; strain SPF98,64 µg/mL
same,MIC,C. glabrata,4 µg/mL
same,MIC,C. neoformans; strain DUMC 118.00,4 µg/mL
same,MIC,C. neoformans; strain DUMC 122.01,4 µg/mL
same,MIC,C. neoformans; strain H99,4 µg/mL
same,MIC,F. oxysporum,16 µg/mL
same,MIC,A. terreus,2 to 4 µg/mL
same,MIC,"C. albicans [1]; Candida albicans, strain SC5314, read-out: MIC",4 µg/mL
same,MIC,"C. albicans [1]; Candida albicans, strain TWO #15, fluconazole-resistant, read-out: MIC",4 µg/mL
same,MIC,"C. albicans [1]; strain TWO #17, fluconazole-resistant",4 µg/mL
same,MIC,"C. auris; strain 0381, drug susceptible",8 µg/mL
same,MIC,"C. auris; strain 0390, multi-drug resistant",2 µg/mL
same,activity compared to cetylpyridinium chloride,P. aeruginosa; P. aeruginosa,more active
same,MIC,"P. aeruginosa; Pseudomonas aeruginosa, strain PAO1",64 µg/mL
same,MIC,S. aureus,32 µg/mL
same,interaction with clinical antifungal,C. albicans [2],antagonistic
same,IC50,"[3]; Candida albicans, SC5314, established 24 h biofilm, treated 24 h, XTT, read-out: biofilm metabolic activity IC50",18.4 µg/mL
same,reduction of biofilm activity relative to planktonic growth,[3]; IC50 versus planktonic MIC,4 fold
same,"LD50, cell lysis assay","HepG2 cells; HepG2, LDH release, 24 h",9 µg/mL
same,"LD50, metabolic activity assay","HepG2 cells; HepG2, XTT, 24 h",20 µg/mL
same,"LD50, toxicity against human cell lines",HepG2 cells; readout not given,9 µg/mL
same,activity during planktonic and inanimate-substrate biofilm growth,C. auris 0381 biofilms,comparable activity
same,change in MIC with glycerol instead of glucose as carbon source,C. albicans [4],not observed
